The text below walks through data of US9896445B2, “Heterocyclic inhibitors of ERK1 and ERK2 and their use in the treatment of cancer” (Asana Biosciences, LLC, priority 2015, dated 2018).

Each structure is given as a SMILES string. Read-outs that look alike come from different tables or passages of the source.

Assay [1] relates to HT-29 (colorectal carcinoma, B-RafV600E) cells. Description: Cell proliferation (Alamar Blue) assay, HT-29. Format: cell-based, human. The note with it: HT29 cells. Here is the method:
(§1) Cell Proliferation (Alamar Blue) Assay
(§2) HT-29 (colorectal carcinoma, B-RafV600E), HCT116 (colorectal carcinoma, K Ras G13D), A375 (melanoma, B-RafV600E) and SK-Mel2 (melanoma, NRAS Q61R) cells (obtained from ATCC, USA) were seeded (5000 cells/well) in 96-well tissue culture plate and incubated at 37° C./5% CO2 for 16-24 hours. The cells were then treated with compounds, at concentrations typically from 0.0005 to 10 uM prepared in 3-fold serial dilutions. The plates were then incubated for 72 h at 37° C./5% CO2 in a moist environment. Then Alamar Blue™ reagent (final concentration 1×) was added to each well and incubated for 1-3 h at 37° C./5% CO2. The plates were read on fluorescence reader at 540 nm excitation and 590 nm emission wavelengths. The IC50 values were subsequently determined using a sigmoidal dose-response curve (variable slope) using GraphPad Prism® 5 software.
On the technique in general: The colour change of resazurin is a common sign of viable cells or microbes.

Another assay deals with phospho-RSK1(S380). Description: Phospho-RSK1(S380) ELISA assay in HT-29 cells. Format: cell-based, human. The note with it: read-out: Mechanist Cell Assay RSK1 Phos HT29 IC50. Here is the method:
Phospho-RSK1(S380) ELISA Assay
HT-29 cells (colorectal carcinoma, B-RafV600E); obtained from ATCC, USA) were seeded (60,000 cells/well) in a 96-well plate and incubated at 37° C./5% CO2 overnight and then treated with desired compound dilutions for 2 h. Medium was removed and cells were rinsed once with ice-cold 1×PBS, then 0.070 mL ice-cold 1× cell lysis buffer containing 1 mM PMSF was added to each well and the plate was incubated on a shaker for 2 h and 30 min at 4° C. The plate was then centrifuged for 20 min (×4000 rpm) at 4° C. and the supernatant was transferred to a new plate. Cell lysates were diluted with sample diluent at a ratio of 1:1. The ELISA was then carried out following the manufacturer's protocol (PathScan® phospho-RSK1(Ser380) Sandwich ELISA Kit, Cell Signaling Technologies). The plate was read at 450 nm within 30 min after adding STOP solution. The IC50 values were subsequently determined using a sigmoidal dose-response curve (variable slope) in GraphPad Prism® 5 software.
On the technique in general: An ELISA detects its analyte on a solid surface through an enzyme-linked reagent.

The test system of assay [2] is HCT116 (colorectal carcinoma, K Ras G13D) cells. Description: Cell proliferation (Alamar Blue) assay, HCT116. Format: cell-based, human. Here is the method:
as §1, §2

A further assay concerns the target T1, ERK2 (Homo sapiens, UniProt P28482).
T1 construct: purchased Jubilant Biosys
Description: ERK2 HTRF (biochemical) assay. As to conditions: HTRF. In short, it runs like this:
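Compounds were tested as half-log dilutions from 0.0005 to 10 uM in Tris pH 7.5/MgCl2 buffer, with a substrate mix of 1 uM biotin-MBP peptide and 24 uM ATP and an enzyme mix of 25 nM ERK2. Reaction ran 60 min at room temperature. Phospho-MBP was detected by HTRF (Eu-anti-phospho-MBP/SA-APC, 665/620 nm), and IC50 was fitted with a variable-slope sigmoidal curve.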
For orientation: Time-resolved FRET reads energy transfer from a long-lived donor to a nearby acceptor.

Another assay has as its target T2, ERK1 (Homo sapiens, UniProt P27361).
T2 construct: purchased Jubilant Biosys
Description: ERK1 HTRF (biochemical) assay. The note with it: HTRF. The method, then:
ERK1 and ERK2 HTRF (Biochemical) Assays
These assays employed a homogeneous time resolved fluorescence (HTRF) technique. […] The plate was incubated at room temperature for 60 min with shaking. […] The IC50 values (half maximal inhibitory concentration values) were subsequently determined using a sigmoidal dose-response curve (variable slope) in GraphPad Prism® 5 software.

T1 sequence (P28482 whole entry): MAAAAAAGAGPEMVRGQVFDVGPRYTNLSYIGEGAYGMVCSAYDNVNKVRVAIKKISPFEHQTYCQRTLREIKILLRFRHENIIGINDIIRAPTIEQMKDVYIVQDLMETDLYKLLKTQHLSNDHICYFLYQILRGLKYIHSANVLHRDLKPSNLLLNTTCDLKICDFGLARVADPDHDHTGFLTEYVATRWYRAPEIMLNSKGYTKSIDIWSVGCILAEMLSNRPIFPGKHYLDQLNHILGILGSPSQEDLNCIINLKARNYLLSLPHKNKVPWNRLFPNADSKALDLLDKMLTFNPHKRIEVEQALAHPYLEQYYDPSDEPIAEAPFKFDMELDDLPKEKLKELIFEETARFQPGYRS
T2 sequence (P27361 whole entry): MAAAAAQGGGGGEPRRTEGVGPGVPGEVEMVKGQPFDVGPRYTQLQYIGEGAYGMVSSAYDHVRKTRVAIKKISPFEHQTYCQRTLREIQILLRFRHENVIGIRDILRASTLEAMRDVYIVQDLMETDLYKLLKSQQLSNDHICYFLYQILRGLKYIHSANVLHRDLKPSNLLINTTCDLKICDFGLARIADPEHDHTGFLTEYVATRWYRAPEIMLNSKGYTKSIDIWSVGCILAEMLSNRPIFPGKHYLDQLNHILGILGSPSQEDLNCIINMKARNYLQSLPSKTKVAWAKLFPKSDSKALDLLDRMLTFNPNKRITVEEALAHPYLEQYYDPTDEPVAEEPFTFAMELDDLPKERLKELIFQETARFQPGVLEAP

As usually defined, the IC50 is the concentration at which inhibition is half-maximal. Turning to `Cc1cnc(NC2CCOCC2)nc1-n1cnc(C(=O)NC(CN)c2cc(F)cc(Cl)c2)c1` (stereo not shown) [Compound 236, N-(2-amino-1-(3-chloro-5-fluoro-phenyl)ethyl)-1-(5-methyl-2-((tetrahydro-2H-pyran-4-yl)amino)-pyrimidin-4-yl)-1H-imidazole-4-carboxamide], the IC50 (in assay [1]; with phospho-RSK1(S380) (HT29 cells); in assay [2] (HCT116 cells)) was at most 100 nM each time.

Take `Cc1cnc(NC2CCOCC2)nc1-n1cnc(C(=O)N[C@]2(c3cccc(Cl)c3)C[C@H](O)C2)c1` [Compound 245, N-((1s,3s)-1-(3-chlorophenyl)-3-hydroxycyclobutyl)-1-(5-methyl-2-((tetrahydro-2H-4-yl)amino)pyrimidin-4-yl)-1H-imidazole-4-carboxamide]: the IC50 was 250 to 500 nM in the assay with phospho-RSK1(S380) (Homo sapiens, HT-29, HT29 cells); 500 to 2500 nM in assay [2] (Homo sapiens, HCT-116, HCT116 cells); at most 50 nM on ERK2; under 50 nM against ERK1.
